Experimental data from ChEMBL document CHEMBL5505975, “Design, synthesis and biological evaluation of CDC20 inhibitors for treatment of triple-negative breast cancer” (Eur J Med Chem, 2024).
Calls of active or inactive are those of the source. No cut-off for these calls is given here.

Assays:
MDA-MB-231 [1] = assay: Cell cycle arrest in human MDA-MB-231 cells assessed as S phase cells at 20 uM incubated for 72 hrs by PI staining based flow cytometric analysis (reference value: 28.7%); format: functional
MDA-MB-231 [2] = assay: Cell cycle arrest in human MDA-MB-231 cells assessed as G1 phase cells at 5 uM incubated for 48 hrs by PI staining based flow cytometric analysis (reference value: 76.7%); format: functional
MDA-MB-231 [3] = assay: Cell cycle arrest in human MDA-MB-231 cells assessed as S phase cells at 5 uM incubated for 48 hrs by PI staining based flow cytometric analysis (reference value: 16.0%); format: functional
MDA-MB-231 [4] = assay: Induction of apoptosis in human MDA-MB-231 cells assessed as early apoptotic cells at 2.5 uM incubated for 48 hrs by Annexin V-FITC/PI staining based flow cytometric analysis (reference value: 2.25 %); format: functional
MDA-MB-231 [5] = assay: Induction of apoptosis in human MDA-MB-231 cells assessed as necrotic cells at 5 uM incubated for 48 hrs by Annexin V-FITC/PI staining based flow cytometric analysis (reference value: 1.63%); format: functional
4T1 = assay: Antitumor activity against mouse 4T1 cells implanted in female BALB/C mouse assessed as inhibition of tumor growth at 20 to 50 mg/kg, po administered every two days for 21 days; format: functional, organism-based; conditions: dose 20-50 mg/kg, time 21.0 day
[6] = Toxicity in female BALB/C mouse implanted with mouse 4T1 cells assessed as heart damage at 20 to 50 mg/kg, iv administered every two days for 21 days by H and E staining based analysis; format: organism-based; conditions: in vivo, 504 h, dose 20-50 mg/kg, time 21 day
[7] = Toxicity in female BALB/C mouse implanted with mouse 4T1 cells assessed as kidney damage at 20 to 50 mg/kg, iv administered every two days for 21 days by H and E staining based analysis; format: organism-based; conditions: in vivo, 504 h, dose 20-50 mg/kg, time 21 day
[8] = Toxicity in female BALB/C mouse implanted with mouse 4T1 cells assessed as heart damage at 20 to 50 mg/kg, po administered every two days for 21 days by H and E staining based analysis; format: organism-based; conditions: in vivo, 504 h, dose 20-50 mg/kg, time 21 day
[9] = Toxicity in female BALB/C mouse implanted with mouse 4T1 cells assessed as lung damage at 20 to 50 mg/kg, po administered every two days for 21 days by H and E staining based analysis; format: organism-based; conditions: in vivo, 504 h, dose 20-50 mg/kg, time 21 day
[10] = Toxicity in female BALB/C mouse implanted with mouse 4T1 cells assessed as kidney damage at 20 to 50 mg/kg, po administered every two days for 21 days by H and E staining based analysis; format: organism-based; conditions: in vivo, 504 h, dose 20-50 mg/kg, time 21 day
[11] = Toxicity in female BALB/C mouse implanted with mouse 4T1 cells assessed as change in serum CREA level at 20 to 50 mg/kg, po administered every two days for 21 days; format: organism-based; conditions: in vivo, 504 h, dose 20-50 mg/kg, time 21 day
[12] = Toxicity in female BALB/C mouse implanted with mouse 4T1 cells assessed as change in serum LDH level at 20 to 50 mg/kg, po administered every two days for 21 days; format: organism-based; conditions: in vivo, 504 h, dose 20-50 mg/kg, time 21 day
[13] = Toxicity in female BALB/C mouse implanted with mouse 4T1 cells assessed as change in serum AST level at 20 to 50 mg/kg, iv administered every two days for 21 days; format: organism-based; conditions: in vivo, 504 h, dose 20-50 mg/kg, time 21 day
[14] = Toxicity in female BALB/C mouse implanted with mouse 4T1 cells assessed as change in serum CREA level at 20 to 50 mg/kg, iv administered every two days for 21 days; format: organism-based; conditions: in vivo, 504 h, dose 20-50 mg/kg, time 21 day
[15] = Toxicity in female BALB/C mouse implanted with mouse 4T1 cells assessed as change in RBC level at 20 to 50 mg/kg, po administered every two days for 21 days by routine blood analysis; format: organism-based; conditions: in vivo, 504 h, dose 20-50 mg/kg, time 21 day
[16] = Toxicity in female BALB/C mouse implanted with mouse 4T1 cells assessed as effect on neutrophils at 20 to 50 mg/kg, po administered every two days for 21 days by routine blood analysis; format: organism-based; conditions: in vivo, 504 h, dose 20-50 mg/kg, time 21 day
[17] = Toxicity in female BALB/C mouse implanted with mouse 4T1 cells assessed as change in number of platelets at 20 to 50 mg/kg, iv administered every two days for 21 days by routine blood analysis; format: organism-based; conditions: in vivo, 504 h, dose 20-50 mg/kg, time 21 day
[18] = Toxicity in female BALB/C mouse implanted with mouse 4T1 cells assessed as effect on monocytes at 20 to 50 mg/kg, iv administered every two days for 21 days by routine blood analysis; format: organism-based; conditions: in vivo, 504 h, dose 20-50 mg/kg, time 21 day

Molecule `CCC(=O)NC(n1cnc2c(Nc3cc(OC)c(OC)c(OC)c3)nc(N)nc21)C(Cl)(Cl)Cl` (centres undefined) has an Activity (MDA-MB-231 [1]) of 12.5%, an Activity (MDA-MB-231 [2]) of 62.8% and an Activity (MDA-MB-231 [3]) of 28.6%. For the same molecule, the Activity (MDA-MB-231 [4]) was 1.34%, the Activity (MDA-MB-231 [5]) was 0.96% and the Activity (4T1) was “Active”. The Activity [6] was “Non-Toxic”, the Activity [7] was “Non-Toxic” and the Activity [8] was “Non-Toxic”. For the same molecule, the Activity [9] was “Non-Toxic”, the Activity [10] was “Non-Toxic” and the Activity [11] was “Non-Toxic”. The Activity [12] was “Non-Toxic”, the Activity [13] was “Non-Toxic” and the Activity [14] was “Non-Toxic”. For the same molecule, the Activity [15] was “Non-Toxic”, the Activity [16] was “Non-Toxic” and the Activity [17] was “Non-Toxic”. For the same molecule, the Activity [18] was “Non-Toxic”.
